Results as given in patent US20220041641A1, “QUATERNARY AMMONIUM SALTS AS INHIBITORS OF TRIMETHYLAMINE PRODUCTION” (Senda Biosciences, Inc., priority 2018, published 2022).
Counter-ions that a name gives are not always drawn.

Columns and labels:
[1] = assay type: in vitro ADME; details: 1 µM
Experimental: This assay was used to assess the stability of a conjugate in a large intestine.
All experiments were performed in an anaerobic chamber containing 90% nitrogen, 5% hydrogen and 5% carbon dioxide. Colonic material was resuspended as a slurry (15% w/v final concentration) in pre-reduced, anaerobically sterilized dilution blanks (Anaerobe Systems AS-908). The colonic material was then inoculated into 96 well plates containing YCFAC media (Anaerobe Systems AS-680, 6.7 μL slurry into 1 mL total media). A compound was added to each individual well to reach a final analyte concentration of 1 μM, and the material was mixed by pipetting. Each sample was removed after set timepoints (0, 120, 240, 480, 1440, 2880 minutes after initiation of the assay), quenched with acetonitrile containing internal standard, and analyzed by LCMS.

[2] = assay type: in vitro ADME; details: simulated gi fluid, 1 µM, pH 1.6
Experimental: This assay was used to assess the stability of a conjugate in a stomach.
Medium was prepared by dissolving 2 g of sodium chloride in 0.6 L in ultrapure water (MilliQ®, Millipore Sigma, Darmstadt, Germany). The pH was adjusted to 1.6 with 1N hydrochloric acid, and the volume was then adjusted to 1 L with purified water.
60 mg FaSSIF powder (Biorelevant™, London, UK) were dissolved in 500 mL buffer (above). Pepsin was added (0.1 mg/mL) (Millipore Sigma, Darmstadt, Germany), and the solution was stirred. The resulting SGF media were used fresh for each experiment.
Test compounds were dissolved in DMSO stock to 1 mM. An aliquot of the DMSO stock solution was removed and diluted in the SGF Media in 15 mL falcon tubes to generate a total compound concentration of 1 μM. A 1 mL aliquot was immediately removed and diluted once with 1 volume of acetonitrile for T0 timepoint. The mixture was sealed and mixed at 37° C. in an incubator. Aliquots (1 mL) were removed at regular intervals and immediately quenched by the addition of 1 volume of acetonitrile. The resulting samples were analyzed by LCMS to determine degradation rates in SGF.

[3] = assay type: in vitro ADME; details: simulated gi fluid, 1 µM, pH 6.7
Experimental: This assay was used to assess the stability of a conjugate in a small intestine.
Phosphate buffer was prepared by dissolving 0.42 g of sodium hydroxide pellets and 3.95 g of monobasic sodium phosphate monohydrate and 6.19 g of sodium chloride in ultrapure water (MilliQ®, Millipore Sigma, Darmstadt, Germany). The pH was adjusted to 6.7 using aq. HCl and aq. NaOH, as necessary, and the solution was diluted with ultrapure water to produce 1 L of the pH 6.7 buffer.
112 mg FaSSIF powder (Biorelevant™, London, UK) was dissolved in 50 mL of the pH 6.7 buffer. 2 to 3 mL of the resulting solution were then added to 500 mg pancreatin (Millipore Sigma, Darmstadt, Germany). The resulting mixture was agitated by finger tapping the vessel containing the mixture until milky suspension formed. At this time, the remainder of the 50 mL FaSSiF/pH 6.7 buffer solution was added. The resulting suspension was flipped upside down 10 times to produce SIF, which was used fresh.
Test compounds were dissolved in DMSO stock to 1 mM. An aliquot of the DMSO stock solution was removed and diluted in the SIF media in 15 mL falcon tubes to produce a mixture with a tested compound concentration of 1 μM. A 1 mL aliquot was immediately removed and diluted once with 1 volume of acetonitrile for T0 timepoint. The mixture was sealed and agitated at 37° C. in an incubator. Aliquots (1 mL) were removed at regular intervals and immediately quenched by the addition of 1 volume of acetonitrile. The resulting samples were analyzed by LCMS to determine degradation rates.

[4] = molecular target: CutC from Proteus mirabilis (Proteus mirabilis, UniProt B4EYG1); test: Cell-based assay for TMA production from a native producer (P. mirabilis); details: d9-TMA from 1 mM d9-choline, 5 h, 37° C.; value 10 given when no fit or % TMA remaining at 10 μM higher than 15%; read-out: Average IC50 Whole cell P. mirabilis
Sequence of CutC from Proteus mirabilis (B4EYG1 entry or part of it): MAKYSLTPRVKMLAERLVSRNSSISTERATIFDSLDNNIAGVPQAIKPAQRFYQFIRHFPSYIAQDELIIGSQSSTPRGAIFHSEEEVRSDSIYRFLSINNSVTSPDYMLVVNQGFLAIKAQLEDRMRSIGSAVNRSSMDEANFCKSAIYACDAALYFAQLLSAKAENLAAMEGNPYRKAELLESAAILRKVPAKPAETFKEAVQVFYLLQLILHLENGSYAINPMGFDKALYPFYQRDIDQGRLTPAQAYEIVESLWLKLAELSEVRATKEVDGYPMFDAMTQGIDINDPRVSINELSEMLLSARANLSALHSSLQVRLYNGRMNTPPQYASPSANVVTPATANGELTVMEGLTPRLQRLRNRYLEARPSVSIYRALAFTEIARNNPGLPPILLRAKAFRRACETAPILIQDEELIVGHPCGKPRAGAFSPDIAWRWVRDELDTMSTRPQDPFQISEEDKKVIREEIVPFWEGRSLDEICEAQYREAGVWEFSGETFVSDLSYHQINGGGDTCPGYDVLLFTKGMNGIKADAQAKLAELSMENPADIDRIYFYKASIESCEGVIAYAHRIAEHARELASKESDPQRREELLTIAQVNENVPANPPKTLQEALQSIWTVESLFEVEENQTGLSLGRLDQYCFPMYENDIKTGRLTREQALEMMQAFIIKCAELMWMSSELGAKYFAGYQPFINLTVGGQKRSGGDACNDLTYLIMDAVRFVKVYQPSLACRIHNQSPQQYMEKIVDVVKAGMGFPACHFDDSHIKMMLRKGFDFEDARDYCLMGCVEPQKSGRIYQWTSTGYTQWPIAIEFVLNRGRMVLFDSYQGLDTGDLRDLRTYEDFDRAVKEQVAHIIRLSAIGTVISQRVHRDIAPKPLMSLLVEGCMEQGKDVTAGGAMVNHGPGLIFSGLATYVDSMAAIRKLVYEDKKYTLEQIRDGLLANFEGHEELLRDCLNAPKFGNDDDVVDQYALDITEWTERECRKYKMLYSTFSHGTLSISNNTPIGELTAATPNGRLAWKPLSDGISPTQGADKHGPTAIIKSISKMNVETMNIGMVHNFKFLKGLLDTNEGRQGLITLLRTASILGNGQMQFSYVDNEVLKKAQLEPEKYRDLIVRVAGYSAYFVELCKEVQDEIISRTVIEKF
Sequence of CutC from Proteus mirabilis (B4EYG0 entry or part of it, further chain): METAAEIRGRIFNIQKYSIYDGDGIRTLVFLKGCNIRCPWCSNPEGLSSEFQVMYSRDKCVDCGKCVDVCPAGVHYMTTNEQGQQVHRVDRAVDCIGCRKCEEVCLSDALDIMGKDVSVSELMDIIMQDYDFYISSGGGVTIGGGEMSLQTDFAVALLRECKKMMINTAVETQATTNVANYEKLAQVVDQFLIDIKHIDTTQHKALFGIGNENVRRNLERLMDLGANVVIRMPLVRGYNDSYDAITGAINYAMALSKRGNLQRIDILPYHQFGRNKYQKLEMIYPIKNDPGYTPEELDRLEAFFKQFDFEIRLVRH
Procedure, shortened: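 Overnight anaerobic cultures of P. mirabilis or C. sporogenes, grown in BHI with 1 mM choline, were diluted and given 1 mM (trimethyl-d9)-choline plus compound at 10 μM final. After 5 h at 37° C., d9-TMA was quantified by LCMS.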

CutC/D enzyme = test: Acute mouse model (plasma TMAO on choline diet); assay type: in vivo, male C57BL/6 mice
Procedure, shortened: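 Male C57BL/6 mice fed a diet with 1.0% choline (g/g) received compound in water by oral gavage once daily on days 1–3. Plasma taken 20 h after the last dose was protein-precipitated and TMAO quantified by LC-MS/MS against a 0.05-100 μM d9-TMAO calibration curve in control plasma.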

in vivo = test: in vivo; design: species or system Sprague-Dawley rats; details: Sprague-Dawley, rat
Experimental: Sprague-Dawley rats (three rats per compound) were treated with a single intravenous (IV) 1 mg/kg dose or orally (PO) a single 10 mg/kg dose. Plasma concentrations of the conjugates were determined by LCMS at 5 minutes, 15 minutes, 30 minutes, 1 hour, 2 hours, 4 hours, 8 and 24 hours post compound administration. […] In addition, the plasma exposure and bioavailability of the active agent of was lower when dosed as a conjugate instead of the active agent alone.

[5] = Pharmacokinetic study of colon contents and plasma after oral dose of conjugate; assay type: in vivo, male C57B3L/6 mice; details: for Cmax: male
Experimental: To confirm that the active agent component of the conjugate is released in the gastrointestinal tract, a pharmacokinetic study was conducted in male C57B3L/6 mice examining conjugate and active agent of concentrations in both the colon contents and plasma after oral dose of conjugate. Conjugate and active agent of were quantified by LCMS at 0 (pre-dose), 0.25, 0.5, 1, 2, 4, 6, 8, 12, and 24 hours post-dose of compound.

Compound	Assay 3- Colonic Material Stability Assay % Remaining at 24 hr [1]	Assay 1- FaSSGF Stability: % Remaining at 1 hr [2]	Assay 2- FaSSIF Stability: % Remaining at 4 hr [3]	IC50 [4]	further results
C#CC[N+](C)(C)CCO[C@H]1CO[C@H]2[C@@H]1OC[C@H]2O [Compound 74, N-(2-(((3S,3aR,6R,6aR)-6-hydroxyhexahydrofuro[3,2-b]furan-3-yl)oxy)ethyl)-N,N-dimethylprop-2-yn-1-aminium trifluoroacetate]	99%	107.3%	121.56%	≥ 10 µM	–
C#CC[N+](C)(C)CC(=O)O[C@H]1CO[C@H]2[C@@H]1OC[C@H]2O.O=C([O-])C(F)(F)F [Compound 70, N-(2-(((3S,3aR,6R,6aR)-6-hydroxyhexahydrofuro[3,2-b]furan-3-yl)oxy)-2-oxoethyl)-N,N-dimethylprop-2-yn-1-aminium trifluoroacetate]	47%	98.36%	28.06%	≥ 10 µM	–
Br.C#CC[N+](C)(C)CC(=O)O[C@@H]1CO[C@H]2[C@@H]1OC[C@@H]2O [Compound 73, N-(2-(((3R,3aR,6S,6aR)-6-hydroxyhexahydrofuro[3,2-b]furan-3-yl)oxy)-2-oxoethyl)-N,N-dimethylprop-2-yn-1-aminium bromide]	44%	107.49%	62.73%	≥ 10 µM	–
C#CC[N+](C)(C)CCO[C@@H]1OC[C@@H](OC(C)=O)[C@H](OC(C)=O)[C@H]1OC(C)=O.[I-] [Compound 8, N,N-dimethyl-N-(2-(((3R,4S,5R)-3,4,5-triacetoxytetrahydro-2H-pyran-2-yl)oxy)ethyl)prop-2-yn-1-aminium iodideiodideiodideiodideiodide]	17%	105.93%	113.28%	≥ 10 µM	% change from vehicle control + choline diet (CutC/D enzyme; Table 4d, 100 mg/kg oral gavage days 1-3): −33%; Mean plasma TMAO (CutC/D enzyme; Table 4d, 100 mg/kg oral gavage days 1-3, plasma 20 h after last gavage): 12.5 µM
C[N+](C)(CF)CCO[C@@H]1O[C@H](CO)[C@@H](O)[C@H](O)[C@H]1O.[Cl-] [Compound 98, (fluoromethyl)dimethyl(2-{[(2R,3R,4S,5S,6R)-3,4,5-trihydroxy-6-(hydroxymethyl)oxan-2-yl]oxy}ethyl)azanium Chloride]	–	–	–	–	Cmax (in vivo; iv, 1 mg/kg): 23.6 µM; Cmax (in vivo; po, 10 mg/kg): 0.306 µM; bioavailability (in vivo; po, 10 mg/kg): 0.72%; % change from vehicle control + choline diet (CutC/D enzyme; Table 4f, 3.70 mg/kg oral gavage days 1-3): −8%; Mean plasma TMAO (CutC/D enzyme; Table 4f, 3.70 mg/kg oral gavage days 1-3, plasma 20 h after last gavage): 29.7 µM; % change from vehicle control + choline diet (CutC/D enzyme; Table 4f, 11.0 mg/kg oral gavage days 1-3): 6%; Mean plasma TMAO (CutC/D enzyme; Table 4f, 11.0 mg/kg oral gavage days 1-3, plasma 20 h after last gavage): 34.3 µM; % change from vehicle control + choline diet (CutC/D enzyme; Table 4f, 36.6 mg/kg oral gavage days 1-3): −69%; Mean plasma TMAO (CutC/D enzyme; Table 4f, 36.6 mg/kg oral gavage days 1-3, plasma 20 h after last gavage): 10.1 µM; Cmax ([5]; C57B3L/6, mouse colon contents after oral dose of conjugate, compound measured = conjugate dosed, read-out: Colon Cmax): 21.8 µM; Cmax ([5]; C57B3L/6, mouse plasma after oral dose of conjugate, compound measured = conjugate dosed, read-out: Plasma Cmax): 1.3 µM
C#CC[N+](C)(C)CCO[C@@H]1O[C@H](COC(=O)CCC)[C@@H](OC(=O)CCC)[C@H](OC(=O)CCC)[C@H]1OC(=O)CCC.[I-] [Compound 1, N,N-dimethyl-N-(2-(((2R,3R,4S,5R,6R)-3,4,5-tris(butyryloxy)-6-((butyryloxy)methyl)tetrahydro-2H-pyran-2-yl)oxy)ethyl)prop-2-yn-1-aminium iodide]	80%	84.79%	30.79%	–	–
CC(=O)OCC1OC(OCC[N+](C)(C)CCl)C(OC(C)=O)C(OC(C)=O)C1OC(C)=O.[I-] (stereo in doubt) [Compound 78, N-(chloromethyl)-N,N-dimethyl-2-(((2S,3S,4R,5S,6S)-3,4,5-triacetoxy-6-(acetoxymethyl)tetrahydro-2H-pyran-2-yl)oxy)ethan-1-aminium Iodide]	–	–	–	–	Cmax (in vivo; iv, 1 mg/kg): 8.31 µM; % F (in vivo; po, 10 mg/kg): 1.91%; Cmax (in vivo; po, 10 mg/kg): 0.13 µM; bioavailability (in vivo; po, 10 mg/kg): 0.99%; Cmax ([5]; C57B3L/6, mouse, in vivo, po): 0.07 µM; Plasma Cmax ([5]; mouse, in vivo, po): Not
